Values quoted from earlier work, collected in US9993551B2, “Combination therapies of EGFR inhibitors” (NOVARTIS AG, priority 2014, dated 2018).

Key:
WT EGFR = WT EGFR (Homo sapiens, UniProt P00533)
[1] = test system: EGFR mutant (L858R, ex19del and T790M) cancer models; settings: in vitro and in vivo
[2] = test system: EGFR activating and acquired resistance mutants (L858R, ex19del and T790M); settings: targeted covalent irreversible EGFR inhibitor

WT EGFR, sequence (P00533 25-1210): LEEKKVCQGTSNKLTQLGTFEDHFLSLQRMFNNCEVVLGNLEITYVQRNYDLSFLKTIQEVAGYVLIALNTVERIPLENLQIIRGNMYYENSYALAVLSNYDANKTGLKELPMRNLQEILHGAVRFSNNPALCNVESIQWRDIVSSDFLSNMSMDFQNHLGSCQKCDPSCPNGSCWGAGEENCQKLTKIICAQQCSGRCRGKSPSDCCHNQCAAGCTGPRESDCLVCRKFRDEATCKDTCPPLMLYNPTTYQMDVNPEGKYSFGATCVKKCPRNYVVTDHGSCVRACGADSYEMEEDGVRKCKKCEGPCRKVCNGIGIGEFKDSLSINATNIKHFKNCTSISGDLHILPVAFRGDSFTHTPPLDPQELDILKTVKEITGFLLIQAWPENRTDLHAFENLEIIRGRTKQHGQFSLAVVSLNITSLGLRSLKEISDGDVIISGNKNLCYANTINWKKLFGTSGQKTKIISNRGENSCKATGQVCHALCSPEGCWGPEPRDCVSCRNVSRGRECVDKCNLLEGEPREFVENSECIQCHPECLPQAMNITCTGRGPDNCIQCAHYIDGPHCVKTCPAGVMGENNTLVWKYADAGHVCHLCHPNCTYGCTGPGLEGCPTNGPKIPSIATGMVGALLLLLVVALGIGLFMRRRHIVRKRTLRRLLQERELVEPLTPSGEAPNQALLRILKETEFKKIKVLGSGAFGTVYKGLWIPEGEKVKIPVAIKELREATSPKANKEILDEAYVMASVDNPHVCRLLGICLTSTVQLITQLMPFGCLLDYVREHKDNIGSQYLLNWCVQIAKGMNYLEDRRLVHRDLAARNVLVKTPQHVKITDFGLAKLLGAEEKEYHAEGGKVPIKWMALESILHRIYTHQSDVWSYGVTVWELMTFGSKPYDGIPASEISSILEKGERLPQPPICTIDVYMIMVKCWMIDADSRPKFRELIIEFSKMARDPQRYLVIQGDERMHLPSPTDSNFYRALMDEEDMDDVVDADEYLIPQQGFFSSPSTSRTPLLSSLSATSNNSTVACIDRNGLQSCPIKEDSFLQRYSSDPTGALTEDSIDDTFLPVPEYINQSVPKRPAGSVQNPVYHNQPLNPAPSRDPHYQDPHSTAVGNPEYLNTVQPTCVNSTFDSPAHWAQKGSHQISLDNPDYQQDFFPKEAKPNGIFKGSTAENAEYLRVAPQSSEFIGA

Cc1cc(C(=O)Nc2nc3cccc(Cl)c3n2[C@@H]2CCCCN(C(=O)/C=C/CN(C)C)C2)ccn1 [EGF816, (R,E)-N-(7-chloro-1-(1-(4-(dimethylamino)but-2-enoyl)azepan-3-yl)-1H-benzo[d]imidazol-2-yl)-2-methylisonicotinamide]
effect on WT EGFR (WT EGFR): sparing WT EGFR
efficacy in EGFR mutant cancer models [1]: significant efficacy
inhibition of mutant EGFR [2]: selectively inhibits
